Data as given in patent US8367121B2, “Nutraceutical agent for attenuating the neurodegenerative process associated with Parkinson's disease” (Florida A & M University, priority 2005, dated 2013).
Like-named read-outs stand apart in the source and are kept apart here.

Columns and labels:
[1] = test system: MPP+ toxicity; assay: MPP+ toxicity in vitro (loss of ATP / cell death); assay type: cell-based; details: for protection against MPP+ toxicity: in vitro
[2] = test system: 6-OHDA toxicity; assay: 6-OHDA toxicity in vitro; assay type: cell-based
[3] = Non-enzymatic DA oxidation to melanized pigments in buffered non-acid solution exposed to atmosphere; details: neutral pH; data not published
Description: 2. DA AUTOXIDATION—The second major route for DA oxidation is non-enzymatic autoxidation in the presence of H2O2, ROS and metals (Fe^+2, Cu^+2, and Mn^+2) (Montgomery et al., Toxicology. 1995 Mar. 31; 97(1-3):3-9; Sayre et al., 1999 Bio-inorganic Chemistry 3:220-225). Autoxidation of DA can render formation of 6-OHDA (a potent neurotoxin) and O2.^−, of which the later if in proximity to nitric oxide (NO) can react to form ONOO—. Peroxynitrite can then re-oxidize DA, deplete available reduced glutathione/ascorbate, incur a substantial loss of endogenous GSH-peroxidase function and destroy the natural ability of GSH to act as an antioxidant, inactivate toxic DA o-semiquinones or ONOO—(Blum et al., 2001; Antunes et al., Toxicology. 2005 Mar. 15; 208(2):207-12). Likewise, the neurological damage associated with PD corresponds to depletion of SNc GSH as consistently evidenced in various studies (Ebadi et al, Prog Neurobiol. 1996 January; 48(1):1-19) and a reduction of GSH (ie. γ-glutamylcysteine. synthetase inhibitor) renders SNc neurons extremely vulnerable to the toxic effects of MPTP and 6-OHDA (Bharath et al., Biochem Pharmacol. 2002 September; 64(5-6):1037-48). In contrast, administration of thiol antioxidants such as dithioreitol, GSH and NAC (which block the autoxidation of DA), prevent MPTP induced toxicity in mice (Annepu and Ravindranath, Neurosci Lett. 2000 Aug. 11; 289(3):209-12; Bahat-Stroomza et al., Eur J Neurosci. 2005 February; 21(3):637-46). For these reasons, the formulation will include substances that prevent non-enzymatic DA oxidation herein classified under “DA-AUTOXIDATION (−)”. The compounds chosen were based on their propensity to block DA oxidation to melanized pigments in buffered non-acid solution exposed to atmosphere and corresponding production of ROS upon exposure of O2 (data not published). Of approximately 100 food based compounds tested in our lab, the findings indicate a block of DA oxidation at neutral pH by PY, β-CAROTENE (*), NAC (*), GSH (*), VITAMIN C (*). […] The addition of ascorbic acid as a DA-AUTOXIDATION (−) should be limited given its negative counter-indication with iron and 6-OHDA (Mendez-Alvarez et al., Free Radic Biol Med. 2001 Oct. 15; 31(8):986-98). In contrast, ample concentration of thiol substances should be added to the formulation as they are non-toxic, attenuate pathological effects of 6-OHDA, ONOO— and block the formation of DA o-semiquinone neurotoxic radicals (Asanuma et al., Acta Med. Okayama 2004: 58 (5) 221-233).

[4] = test system: H2O2 toxicity; assay: H2O2 toxicity in vitro; assay type: cell-based
Description: (§1) With that, overcoming the initial deficit imposed by PD toxins such as MPP+ are possible with non-glucose intermediates that are capable of sustaining ATP production through substrate level phosphorylation. These compounds should protect against cell death by MPP+, herein also classified under “ANAEROBIC (+)”. […] Agents capable of mediating positive effects on PK/LDH should in theory offset the metabolic vulnerability imposed by the rise in lactate/pyruvate, nicotinamide adenine dinucleotide (NAD)/nicotinamide adenine dinucleotide reduced (NADH) and NADP/NADPH ratios that occur during hypoglycemia and neurological damage (Auer RN. Metab Brain Dis. 2004 December; 19(3-4):169-75). For this reason, the first component and the base of this nutraceutical formulation are one or more of PYRUVIC ACID (*) (PY), […] ACID (SA)* and OXALOACETATE (*) (OA) as well as their corresponding molecular derivatives, analogues, esters or salts. […] On the other hand, PY can readily enter the brain, serve as a useful substrate for glycolysis, the Krebs cycle and the GABA shunt (Gonzalez et al., J Neurochem. 2005 October; 95(1):284-93) with capability to protect ergogenic failure associated with ischemic stroke and heart disease (Lee et al., J Neurosci. 2001 Oct. 15; 21(20):RC171; Hermann et al., Eur J Heart Fail. 2004 Mar. 1; 6(2):213-8).

[5] = test system: LDH; assay: Substrate for lactic acid dehydrogenase; assay type: biochemical
Description: as §1

[6] = Reduce/chelate and complex iron; details: as demonstrated in our lab
[7] = test system: complex II; assay: Mitochondrial complex II function; assay type: biochemical
[8] = test system: mitochondrial respiration; assay: Mitochondrial O2 consumption / respiration; assay type: biochemical
[9] = test system: complex I; assay: Mitochondrial complex I function
[10] = test system: complex IV; assay: Mitochondrial complex IV function; assay type: biochemical
[11] = Non-enzymatic H2O2 scavenging
[12] = test system: 6-OHDA toxicity; details: Kabuto et al., Neurochem Res. 2005; cited from earlier work

Compound: NC(=O)C1=CN([C@@H]2O[C@H](COP(=O)(O)OP(=O)(O)OC[C@H]3O[C@@H](n4cnc5c(N)ncnc54)[C@H](O)[C@@H]3O)[C@@H](O)[C@H]2O)C=CC1 [NADH, reduced nicotinamide adenine dinucleotide]
- protection against MPP+ toxicity [1]: protect

Compound: CC(=O)C(=O)O [PY, PYRUVIC ACID]
- protection against / antagonism of 6-OHDA toxicity [2]: protect
- protection against / antagonism of 6-OHDA toxicity ([2]; listed as pyruvate): directly antagonize
- block of DA oxidation [3]: block
- protection against H2O2 toxicity [4]: protect
- protection against MPP+ toxicity [1]: protect
- substrates for LDH [5]: exceptional substrates for LDH

Compound: CN1C(C(=O)Nc2ccccn2)=C(O)c2ccccc2S1(=O)=O [PIROXICAM, reference compound]
- protection against MPP+ toxicity [1]: effective

Compound: O=C(O)CCC(=O)O [SA, SUCCINIC ACID]
- fuel anaerobic glycolysis in the presence of MPP+ ([1]; data not published): great propensity

Compound: C=C(OP(=O)(O)O)C(=O)O [PHOSPHOENOLPYRUVATE]
- protection against MPP+ toxicity [1]: effective

Compound: O=c1c(O)c(-c2ccc(O)c(O)c2)oc2cc(O)cc(O)c12 [quercetin]
- reduce/chelate and complex iron [6]: most powerful

Compound: Oc1ccc2c(c1)OCO2 [SESAMOL]
- reduce/chelate and complex iron [6]: most powerful

Compound: CC1=CC(=O)C(C(C)C)=CC1=O [THYMOQUINONE]
- protection against MPP+ toxicity [1]: effective

Compound: O=C(COP(=O)(O)O)[C@@H](O)[C@H](O)[C@H](O)COP(=O)(O)O [FRUCTOSE 1,6 BISPHOSPHATE]
- protection against MPP+ toxicity [1]: effective

Compound: COc1cc(/C=C/C(=O)O)ccc1O [FERULIC ACID]
- reduce/chelate and complex iron [6]: most powerful

Compound: O=c1oc2c(O)c(O)cc3c(=O)oc4c(O)c(O)cc1c4c23 [ellagic acid]
- reduce/chelate and complex iron [6]: most powerful

Compound: O=C1O[C@H]([C@@H](O)CO)C(O)=C1O [VITAMIN C, ascorbic acid]
- block of DA oxidation [3]: block

Compound: O=C(O)/C=C/c1ccc(O)c(O)c1 [caffeic acid]
- reduce/chelate and complex iron [6]: most powerful

Compound: N[C@@H](Cc1c[nH]cn1)C(=O)O [histidine]
- protection against / antagonism of 6-OHDA toxicity [2]: mild protection

Compound: COC1=C(OC)C(=O)C(C/C=C(\C)CC/C=C(\C)CC/C=C(\C)CC/C=C(\C)CC/C=C(\C)CC/C=C(\C)CC/C=C(\C)CC/C=C(\C)CC/C=C(\C)CCC=C(C)C)=C(C)C1=O [coenzyme Q10]
- potentiation of complex II function [7]: mild potentiator
- protection against MPP+ toxicity [1]: no effects
- effects on mitochondrial O2 consumption / mitochondrial respiration as a whole [8]: no effects
- effects on complex I function [9]: little to no effects
- effects on complex IV function [10]: little to no effects

Compound: Cc1cc2nc3c(=O)[nH]c(=O)nc-3n(C[C@H](O)[C@H](O)[C@H](O)CO)c2cc1C [riboflavin, RIBOFLAVIN]
- protection against MPP+ toxicity [1]: exacerbating

Compound: CC(=O)O[C@H](CC(=O)[O-])C[N+](C)(C)C [ACETYL-L-CARNITINE]
- protection against MPP+ toxicity [1]: effective

Compound: Oc1ccc(C=Cc2cc(O)cc(O)c2)cc1 [RESVERATROL]
- protection against MPP+ toxicity [1]: effective

Compound: CC(=O)N[C@@H](CS)C(=O)O [NAC, N-acetyl-L-cysteine]
- protection against / antagonism of 6-OHDA toxicity [2]: directly antagonize
- block of DA oxidation [3]: block

Compound: N[C@@H](Cc1c[nH]c2ccccc12)C(=O)O [TRYPTOPHAN]
- protection against MPP+ toxicity [1]: effective

Compound: CYTOCHROME C: cytochrome C, combined with an H2O2 antioxidant to detoxify 6-OHDA
- protection against / antagonism of 6-OHDA toxicity [2]: directly antagonize

Compound: O=c1c(O)c(-c2ccc(O)cc2O)oc2cc(O)cc(O)c12 [MORIN]
- reduce/chelate and complex iron [6]: most powerful

Compound: CC1=C(/C=C/C(C)=C/C=C/C(C)=C/C=C/C=C(C)/C=C/C=C(C)/C=C/C2=C(C)CCCC2(C)C)C(C)(C)CCC1 [β-CAROTENE]
- block of DA oxidation [3]: block
- scavenge H2O2 [11]: scavenge

Compound: COc1cc(CCC(C)=O)ccc1O [zingerone]
- antagonism of 6-OHDA toxicity [12]: directly antagonize

Compound: NARINGEN
- protection against MPP+ toxicity [1]: effective

Compound: Vitamin E
- block of DA oxidation [3]: lack of effects
- scavenge H2O2 [11]: lack of effects

Compound: O=C(O[C@@H]1Cc2c(O)cc(O)cc2O[C@@H]1c1cc(O)c(O)c(O)c1)c1cc(O)c(O)c(O)c1 [EGCG, (−)-Epigallocatechin-3-gallate]
- protection against MPP+ toxicity [1]: effective

Compound: O=C(CO)[C@@H](O)[C@H](O)[C@H](O)CO [FRUCTOSE]
- protection against MPP+ toxicity [1]: effective

Compound: N[C@@H](CCC(=O)N[C@@H](CS)C(=O)NCC(=O)O)C(=O)O [GSH, reduced glutathione]
- protection against / antagonism of 6-OHDA toxicity [2]: directly antagonize
- block of DA oxidation [3]: block
